The text below walks through data of US20260007679A1, “METHODS OF TREATING CANCER USING 3-(4-((4-(MORPHOLINOMETHYL)BENZYL)OXY)-1-OXOISOINDOLIN-2-YL)PIPERIDINE-2,6-DIONE” (Celgene Corporation, priority 2012, published 2026).

Common to all, as to format: cell-based
Test [1] deals with Human umbilical vascular endothelial cells. The test can be described thus: Growth factor-induced HUVEC proliferation assay. The note with it: for IC50: Homo sapiens, Endothelial cell. The method, then: Human Umbilical Vascular Endothelial Cells Proliferation Assay: Human umbilical vascular endothelial cells were thawed and grown in EGM2 medium until passage 3 to 6 for all proliferation assays. Human umbilical vascular endothelial cells were trypsinized, washed with 20% FBS/M199 medium and plated with the same medium at 10^4 cells/100 μL per well to 96-well cell culture plates. The plates were incubated overnight at 37° C. to allow cells to adhere. The cells were then starved in 1% FBS/M199 medium for 18 hours after washing with the same medium 3 times. For optimization of the concentration of the growth factors in the HUVEC proliferation assay, 100 µL/well of the 2× serial diluted growth factors, starting at 100 ng/mL, were added to HUVECs in duplicate for 72 hours at 37° C. in a humidified cell culture incubator with 5% CO2. For analysis of test compounds, a serial dilution of the test compounds in 0.4% DMSO/1% FBS/M199 medium in duplicate was made from the 10 mM stock. Fifty microliters per well of the serially diluted test compounds (10, 1.0, 0.1, 0.01, 0.001, 0.0001, 0.00001 μM) were added to the cells for 1 to 2 hours at 37° C. The final DMSO concentration in the cells is 0.1%. Then 50 μL of 4× final concentration of relative growth factors was added to each well in duplicate for 72 hours at 37° C. in a humidified cell culture incubator with 5% CO2. Thymidine incorporation was measured by adding one microcurie of 3H-thymidine (Amersham) in 20 μL medium to each well and incubated at 37° C. in a humidified cell culture incubator with 5% CO2 for 5 to 6 hours. The cells were then trypsinized and harvested onto UniFilter GF/C filter plates (Perkin Elmer) by using the cell harvester (Tomtec). After the plates were air dried, 20 μL/well of Microscint 20 (Packard) was added then the plates were analyzed in TopCount NXT (Packard). Each well was counted for one minute. The experiments were performed in duplicate in each of 3 donors.
(§1) The percentage inhibition of cell proliferation, tube formation, migration, and invasion was calculated by subtracting the result for unstimulated DMSO control from test sample results, averaging all replicates, and normalizing to the growth factor-stimulated DMSO control (0% inhibition). The IC50 values were calculated by using GraphPad Prism 5.0.

Test [2] has the same test system. The experiment in a line: Growth factor-induced HUVEC tube formation assay. The conditions noted are these: for VEGF-induced HUVEC tube formation (tube length and tube area): VEGF 25 ng/mL. The method, then:
Human Umbilical Vascular Endothelial Cell Tube Formation Assay: Compounds were tested in the growth factor-induced HUVEC tube formation assay. The tube formation plates were incubated at 37° C. for 30 minutes for matrigel to polymerize. The HUVECs were starved in 0.1% BSA basal EBM2 medium for 5 hours after washing with the same medium 3 times. The cells were trypsinized and centrifuged. Then 25 μL of 4× serially diluted compounds (10, 1, 0.1, 0.01, 0.001, 0.0001, 0.00001 μM) were added in duplicate with 50 μL of 2×10^4 cells/well to tube formation plates coated with matrigel. […] of 4×VEGF (final concentration=25 ng/mL) or bFGF (final concentration=10 ng/mL) were added to the plates. The cells were then incubated overnight (˜18 hours) at 37° C. in a humidified incubator. The tubule webs were stained with calcein AM at 4 g/L in 2% FBS/IBSS for 30 minutes and images taken by fluorescence microscopy. The tubules were quantified by the MetaMorph tube formation software program for tube area and tube length.
as §1

Test [3] has the same test system. The experiment in a line: Growth factor-induced HUVEC invasion assay. The conditions noted are these: for IC50: Homo sapiens; for VEGF-, bFGF-, and HGF-induced HUVEC invasion: dose-dependent. The method, then:
Human Umbilical Vascular Endothelial Cell Invasion Assay: In the HUVEC invasion assay, the concentration of human fibronectin is optimized to provide a suitable protein structure for adherent cells to attach to the membrane and allow free migration in response to an angiogenic stimulus (e.g. VEGF, bFGF, or HGF) in the lower chamber of the insert plate. HUVECs were starved in 0.1% BSA EBM2 medium for 6 hours after washing with the same medium 3 times. The cells were then trypsinized and centrifuged to remove the remaining trypsin. Then ˜0.5 to 1×10^6 cells in 125 μL/well and 125 μL of 8× serially diluted compounds (10, 1, 0.1, 0.01, 0.001 μM) were added to the upper chamber of the BD Falcon 24-well and 96-well insert plates in duplicate and incubated for ˜1 to 2 hours. (The plates contain a fluorescence blocking, microporous [3.0 μm pore size] PET membrane that has been evenly coated with human fibronectin.) Seven hundred fifty microliters of a 1.33× stock solution of VEGF (final concentration of 25 ng/mL), bFGF (final concentration of 10 ng/mL), or HGF (final concentration of 25 ng/mL) were then added to the lower chamber. The cells were incubated for 22±1 hours at 37° C. The migrated cells were stained with calcein AM at 4 μg/mL in HBSS containing 2% FBS, using 500 µL/well in 24-well plates and 200 µL/well in 96-well plates. The plates were incubated at 37° C. for 90 minutes and read in a fluorescence plate reader.
as §1

For test [4], the system named is rat aorta. The test can be described thus: Rat aorta assay. The protocol:
Compounds I, I-R, and I-S were tested in various angiogenesis inhibition assays.

Where [5] appears, read: read-out: bFGF (10 ng/mL) IC50 Values, bFGF-induced proliferation.
[6] abbreviates: HGF-induced proliferation, read-out: HGF (25 ng/mL) IC50 Values.
Where [7] appears, read: VEGF-induced proliferation, read-out: VEGF (25 ng/mL) IC50 Values.
Setting [8] is: Endothelial cell, read-out: HGF-induced invasion IC50 Values.
[9] abbreviates: Endothelial cell, read-out: VEGF-induced invasion IC50 Values.
Setting [10] is: Endothelial cell, read-out: bFGF-induced invasion IC50 Values.
The mark [11] stands for this setting: HUVEC, read-out: IC50, HUVEC invasion (growth factor not given).
The mark [12] stands for this setting: HUVEC, read-out: IC50 for inhibition of VEGF induced HUVEC invasion.

For the compound `O=C1CC[C@@H](N2Cc3c(OCc4ccc(CN5CCOCC5)cc4)cccc3C2=O)C(=O)N1` [Compound I-R, (R)-3-(4-((4-(morpholinomethyl)benzyl)oxy)-1-oxoisoindolin-2-yl)piperidine-2,6-dione], the “inhibition of VEGF-, bFGF-, or HGF-induced HUVEC proliferation” value in test [1] is “did not inhibit”. In addition, the IC50 was 76000 nM in test [1] (setting [5]); 38000 nM in test [1] (setting [6]); above 100000 nM in test [1] (setting [7]); 450 nM in test [3] (setting [8]); below 0.1 nM in test [3] (setting [9]); 13 nM in test [3] (setting [10]). Moreover, the IC50 in test [3] (setting [11]) is 13 nM; in test [3] (setting [12]), below 0.3 nM. Besides, the “VEGF-induced HUVEC tube formation (tube length and tube area)” value (shortened to “VEGF-induced HUVEC tube formation”) in test [2] is reported as “trend toward inhibiting”. In addition, in test [2] (VEGF-induced, 10 μM, p<0.05 vs stimulated DMSO control), the “inhibition of tube area and length” value is given as “significant inhibition”. Also, the “VEGF-, bFGF-, and HGF-induced HUVEC invasion” value in test [3] is “significantly inhibited”. In addition, the “anti-angiogenic activity in rat aorta assay” value (shortened to “anti-angiogenic activity”) in test [4] is “modest anti-angiogenic activity”.

Regarding `O=C1CC[C@H](N2Cc3c(OCc4ccc(CN5CCOCC5)cc4)cccc3C2=O)C(=O)N1` [Compound I-S, (S)-3-(4-((4-(morpholinomethyl)benzyl)oxy)-1-oxoisoindolin-2-yl)piperidine-2,6-dione], in test [1], the “inhibition of VEGF-, bFGF-, or HGF-induced HUVEC proliferation” value is reported as “did not inhibit”. The IC50 was 52000 nM in test [1] (setting [5]); 51000 nM in test [1] (setting [6]); above 100000 nM in test [1] (setting [7]); 19 nM in test [3] (setting [8]); below 0.1 nM in test [3] (setting [9]); below 0.1 nM in test [3] (setting [10]). Besides, the IC50 in test [3] (setting [11]) is below 0.1 nM; in test [3] (setting [12]), below 0.3 nM. Besides, in test [1] (VEGF-treated HUVECs), the “concentrations with significant enhancement of proliferation” value lay within 1 to 10 µM. Besides, the “VEGF-induced HUVEC tube formation” value in test [2] is “trend toward inhibiting”. In test [3], the “VEGF-, bFGF-, and HGF-induced HUVEC invasion” value is on record as “significantly inhibited”. Further, in test [4], the “anti-angiogenic activity” value was “modest anti-angiogenic activity”.

For the compound `O=C1CCC(N2Cc3c(OCc4ccc(CN5CCOCC5)cc4)cccc3C2=O)C(=O)N1` (racemic) [Compound I, 3-(4-((4-(morpholinomethyl)benzyl)oxy)-1-oxoisoindolin-2-yl)piperidine-2,6-dione], the “inhibition of VEGF-, bFGF-, or HGF-induced HUVEC proliferation” value in test [1] was “did not inhibit”. The IC50 in test [1] (setting [5]) was 99000 nM; in test [1] (setting [6]), 24000 nM; in test [1] (setting [7]) it was above 100000 nM; in test [3] (setting [8]), 590 nM; in test [3] (setting [9]), 0.14 nM; in test [3] (setting [10]), 0.42 nM. For the same compound, the IC50 in test [3] (setting [11]) was 0.4 nM; in test [3] (setting [12]) it was below 0.3 nM. For the same compound, in test [1] (bFGF-treated HUVECs), the “concentrations with significant enhancement of proliferation” value was 0.01 to 1 µM. Moreover, the “VEGF-induced HUVEC tube formation” value in test [2] was “trend toward inhibiting”. Also, in test [3], the “VEGF-, bFGF-, and HGF-induced HUVEC invasion” value was “significantly inhibited”. In addition, the “anti-angiogenic activity” value in test [4] is “modest anti-angiogenic activity”.
